What was measured:
[1] = test system: ID8-Defb29/Vegf-a ovarian cancer; assay: In vivo orthotopic syngeneic ID8-Defb29/Vegf-a ovarian cancer mouse model
Procedure: For orthotopic syngeneic model, luciferase expressing ID8-Defb29/Vegf-a with inducible shHMGB2 cells were pretreated with 2 μM Cisplatin for 48 hours to induce CCFs. 5×10^6 cells were i.p. injected into the peritoneal cavity of C57BL/6 mouse (female, 6-8 weeks old, CRL/NCI) (Zhu et al., 2016). Animals were randomly assigned to different treatment groups (10 mice/group). The mice in control groups were fed with control rodent diet (Fisher Scientific. Cat. No: 14-726-309). For the HMGB2 knockdown groups, mice were fed with Bio-Serv™ Doxycycline Grain-Based Rodent Diet (Fisher Scientific. Cat. No: 14-727-450) to induce HMGB2 knockdown. Tumor progression was monitored twice a week using a Xenogen IVIS Spectrum in vivo bioluminescence imaging system. Images were analyzed using Live Imaging 4.0 software. Tumor-bearing mice were treated by i.p. injection with isotype control IgG or anti-PD-L1 antibody (Bio X Cell, Cat. No: B7-H1, clone 10 F.9G2, 10 mg kg^-1) every 3 days with or without simultaneous TOP1 inhibitor camptothecin treatment (Selleck Cat. No: S1288; 8 mg kg^-1). For survival analysis, the Wistar Institute IACUC guideline was followed in determining the time for ending the survival experiments (tumor burden exceeds 10% of body weight).

SASP factors = assay: Secreted cytokine antibody array, IMR90 cells; format: cell-based, human; conditions: HMGB2 knockdown senescent IMR90 cells
Procedure: For cytokine-array analysis, cells were washed once and cultured in serum-free medium for 48 hours (Nacarelli et al., 2019). Conditioned medium was filtered (0.2 μm) and then subjected to cytokine-array assay using Human Cytokine Array C1 kit (RayBiotech. Cat. No: AAH-CYT-1-2) following the manufacturer's guidelines. After collection of conditional media, the cell number of each sample was counted. The intensities of array dots were visualized on film after incubation with SuperSignal West Pico PLUS Chemiluminescent Substrate (Thermo Fisher Scientific. Cat. No: 34580). The integrated density was measured using Image J and normalized to the cell number from which the conditioned medium was generated.

cGAS = cGAS localization into CCF by immunofluorescence; format: cell-based, human; conditions: HMGB2 knockout cells
Procedure: Cells were fixed with 4% paraformaldehyde (PFA) for 15 mins at room temperature followed by permeabilization with 0.2% Triton X-100 in PBS for 5 min. For DNase I digestion, after fixation and permeabilization, cells were treated with 500 units/mL RNase-Free DNase I (Qiagen, Cat. No: 79254) for one hour at 37° C. After blocking with 1% BSA in PBS, cells were incubated with primary antibody overnight at 4° C. and Alexa-Fluor conjugated secondary antibody (Life Technologies). Fluorescent images were captured using Leica TCS SP5 II scanning confocal microscope.

TOP1cc = target: T1, TOP1cc (Mus musculus, UniProt Q04750); assay: Slot blot analysis of TOP1cc levels in CCF of senescent ID8-Defb29/Vegf-a cells; format: cell-based; conditions: HMGB2 knockdown Cisplatin-induced senescent ID8-Defb29 Vegf-a cells
T1 construct: endogenous in cells; host or cells: UPK10 mouse ovarian cancer cells, sorted senescent and non-senescent fractions
T1 sequence (Q04750 1-767): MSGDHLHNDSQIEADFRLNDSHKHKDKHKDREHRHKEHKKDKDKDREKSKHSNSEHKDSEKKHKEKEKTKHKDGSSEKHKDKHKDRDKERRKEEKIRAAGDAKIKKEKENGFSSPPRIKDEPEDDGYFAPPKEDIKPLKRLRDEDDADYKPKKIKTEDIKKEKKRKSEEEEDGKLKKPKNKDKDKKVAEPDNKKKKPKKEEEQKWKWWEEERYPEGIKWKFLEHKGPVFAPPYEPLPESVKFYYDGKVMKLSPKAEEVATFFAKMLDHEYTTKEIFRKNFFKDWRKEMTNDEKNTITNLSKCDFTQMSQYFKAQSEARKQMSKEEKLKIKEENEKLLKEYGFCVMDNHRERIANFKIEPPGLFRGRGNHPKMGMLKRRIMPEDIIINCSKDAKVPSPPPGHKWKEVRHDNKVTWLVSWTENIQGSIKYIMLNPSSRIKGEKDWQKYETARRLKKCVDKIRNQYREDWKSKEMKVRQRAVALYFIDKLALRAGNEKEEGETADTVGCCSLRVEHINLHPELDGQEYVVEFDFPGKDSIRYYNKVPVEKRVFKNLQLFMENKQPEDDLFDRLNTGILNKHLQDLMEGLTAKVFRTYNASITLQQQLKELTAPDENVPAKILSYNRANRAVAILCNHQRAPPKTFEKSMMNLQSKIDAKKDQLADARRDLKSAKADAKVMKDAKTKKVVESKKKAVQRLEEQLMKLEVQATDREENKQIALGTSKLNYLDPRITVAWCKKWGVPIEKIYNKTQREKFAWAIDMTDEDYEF
Procedure: A CCF purification protocol was developed by modifying previous protocols (Shimizu et al., 1996; Ly et al., 2017). Briefly, 500 million senescent cells were collected, resuspended, and incubated in DMEM containing 10 μg/mL cytochalasin B for 30 minutes at 37° C. After wash once with ice-cold PBS, the cell pellet was gently dounce homogenized in ice-cold pre-chilled lysis buffer (10 mM Tris-HCl, 2 mM magnesium acetate, 3 mM CaCl2), 0.32 M sucrose, 0.1 mM EDTA, 1 mM DTT, 0.1% NP-40, 0.15 mM spermine, 0.75 mM spermidine, 10 μg/ml cytochalasin B, pH 8.5, 4° C.) with ten slow strokes of a loose-fitting pestle. Release of nuclei was confirmed by DAPI-staining and microscopy. The homogenate was fixed with 1% formaldehyde for 10 minutes, and mixed well with an equal volume of 1.6M sucrose buffer (10 mM Tris-HCl, 5 mM magnesium acetate, 0.1 mM EDTA, 1 mM DTT, 0.3% BSA, 0.15 mM spermine, 0.75 mM spermidine, pH 8.0, 4° C.). A 10 mL portion of homogenate was layered on the top of sucrose buffer gradient (20 mL and 15 mL containing 1.8M and 1.6M of sucrose, respectively) in a 50 mL tissue culture tube. The tubes were centrifuged at 1200×g for 20 minutes at 4° C. After centrifugation, the upper 3 mL of the gradient was discarded, and the next 15 mL containing CCFs was collected. […] DNA concentration was measured using Nanodrop and 5 μg DNA was used for slot blot analysis.

CC[C@@]1(O)C(=O)OCc2c1cc1n(c2=O)Cc2cc3ccccc3nc2-1 [CPT, Camptothecin]
anti-PD-L1 treatment response (tumor growth by luciferase bioluminescence) ([1]; HMGB2 knockdown tumors, CPT 8 mg kg-1 i.p. with anti-PD-L1 antibody 10 mg kg-1 every 3 days): significantly restored the anti-PD-L1 response
body weight of the treated mice ([1]; anti-PD-L1 antibody-treated group, during treatment period): did not affect the body weight
survival of mice ([1]; mice bearing HMGB2 knockdown tumors, CPT with anti-PD-L1 antibody): rescued the survival
secretion of SASP factors (antibody array) (SASP factors): restoration of the secretion of SASP factors
localization of cGAS and TOP1cc into CCF (cGAS): rescue of the localization of cGAS and TOP1cc into CCF
TOP1cc levels in CCF (TOP1cc): Rescue of the decrease in TOP1cc levels
